The record followed here is PubChem BioAssay AID248 (DTP/NCI, 2004).

The assay deals with L1210 leukemia ip in BDF1 mice, survival T/C. Kind of assay: NCI In Vivo Anticancer Drug Screen. Data for tumor model L1210 Leukemia (intraperitoneal) in B6D2F1 (BDF1) mice. Particulars: endpoint: mean survival time, higher = longer survival. The procedure, abridged: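 Tumor was transplanted into mice, which were then dosed with test compound or vehicle alone. Survival was recorded for each group, and the treated figure was expressed relative to the control figure.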

The mark [1] stands for this setting: dose: 50.0 mg/kg/injection, schedule: Q01DX009 (ip), vehicle: saline with Tween-80.
Where [2] appears, read: dose: 100.0 mg/kg/injection, schedule: Q01DX009 (ip), vehicle: saline with Tween-80.
The mark [3] stands for this setting: dose: 200.0 mg/kg/injection, schedule: Q01DX009 (ip), vehicle: saline with Tween-80.
Setting [4] is: dose: 100.0 mg/kg/injection, schedule: Q04DX003 (ip), vehicle: saline with Tween-80.
[5] abbreviates: dose: 200.0 mg/kg/injection, schedule: Q04DX003 (ip), vehicle: saline with Tween-80.
Where [6] appears, read: dose: 400.0 mg/kg/injection, schedule: Q04DX003 (ip), vehicle: saline with Tween-80.
The mark [7] stands for this setting: dose: 100.0 mg/kg/injection, schedule: Q04DX003 (ip), vehicle: Klucel (hydroxypropylcellulose) (HPC).
[8] abbreviates: dose: 200.0 mg/kg/injection, schedule: Q04DX003 (ip), vehicle: Klucel (hydroxypropylcellulose) (HPC).

Values joined by “and” are separate entries in the source; they are usually repeats but may differ in a detail not shown here. Identical values can stand only once. Inconclusive results and toxic doses are left out.

Turning to `Cc1cccc(C(C)(C)CO)c1`, the T/C by setting is: under setting [1], 100 % of control; under setting [2], 96 % of control; under setting [3], 96 % of control.
Turning to `Cc1nc(N(C)C)c2cnn(-c3ccccc3)c2n1`, the T/C by setting is: under setting [1], 106 % of control; (dose: 100.0 mg/kg/injection, schedule: Q01DX001 (ip), vehicle: acetone) 101 % of control; under setting [2], 87 % of control; (dose: 200.0 mg/kg/injection, schedule: Q01DX001 (ip), vehicle: acetone) 97 % of control.
On to `O=C1N=C2C=CC=CN2C(=O)C1Cc1ccccc1` (stereo not given), for which the T/C is, setting by setting: under setting [2], 90 % of control; under setting [4], 98 % of control; under setting [3], 89 % of control; under setting [5], 94 % of control; (dose: 400.0 mg/kg/injection, schedule: Q01DX009 (ip), vehicle: saline with Tween-80) 96 % of control; under setting [6], 99 % of control.
For the compound `Cc1cc(=O)n(/C=C/C(=O)O)c2ccccc12`, the T/C was 97 % of control under setting [7]; 112 % of control under setting [8]; 94 % of control (dose: 400.0 mg/kg/injection, schedule: Q04DX003 (ip), vehicle: Klucel (hydroxypropylcellulose) (HPC)).
Consider `CC1(C)C2CCC1(C)C(OCCCN=C(N)CSS(=O)(=O)O)C2` (stereo not given), for which the T/C is 113 % of control (dose: 1.5 mg/kg/injection, schedule: Q04DX002 (ip), vehicle: Klucel (hydroxypropylcellulose) (HPC)); 100 % of control (dose: 3.0 mg/kg/injection, schedule: Q04DX002 (ip), vehicle: Klucel (hydroxypropylcellulose) (HPC)); 91 % of control (dose: 6.0 mg/kg/injection, schedule: Q04DX002 (ip), vehicle: Klucel (hydroxypropylcellulose) (HPC)).
For the compound `Cc1ccc(SSSc2ccc(C)cc2[N+](=O)[O-])c([N+](=O)[O-])c1`, the T/C by setting is: (dose: 50.0 mg/kg/injection, schedule: Q04DX002 (ip), vehicle: saline with Tween-80) 88 % of control; (dose: 100.0 mg/kg/injection, schedule: Q04DX002 (ip), vehicle: saline with Tween-80) 88 % of control; (dose: 200.0 mg/kg/injection, schedule: Q04DX002 (ip), vehicle: saline with Tween-80) 98 % of control.
In the case of `O=C1OCC/C1=C\C1CO1` (stereo not given), the T/C reads like this: (dose: 100.0 mg/kg/injection, schedule: Q04DX002 (ip), vehicle: saline) 97 % of control; (dose: 200.0 mg/kg/injection, schedule: Q04DX002 (ip), vehicle: saline) 95 % of control; (dose: 400.0 mg/kg/injection, schedule: Q04DX002 (ip), vehicle: saline) 101 % of control.
For the compound `Cc1cccc(Cl)c1NC(=O)c1cc([N+](=O)[O-])cc([N+](=O)[O-])c1`, the T/C is, setting by setting: (dose: 100.0 mg/kg/injection, schedule: Q01DX009 (ip), vehicle: Klucel (hydroxypropylcellulose) (HPC)) 100 % of control; (dose: 200.0 mg/kg/injection, schedule: Q01DX009 (ip), vehicle: Klucel (hydroxypropylcellulose) (HPC)) 96 % of control.
Take `CCOc1c(Cl)cc(Cl)cc1C(c1ccc(Cl)cc1S(=O)(=O)O)c1cc(Cl)cc(Cl)c1OCC`: the T/C under setting [4] was 89 % of control.
In the case of `O=c1c(Cl)c(C(Cl)(Cl)Cl)c2ccccc2n1O`, the T/C was 101 % of control under setting [7] and 86 % of control under setting [8].
Take `CCCCCCOP1(=O)C=C(C)CC1` (stereo not given): the T/C is 93 % of control under setting [4] and 90 % of control under setting [5].
For `CC1CN=C(c2ccc(NC(=O)c3cccc(C(=O)Nc4ccc(C5=NCC(C)N5)cc4)c3)cc2)N1` (stereo not given), the T/C was 98 % of control (dose: 4.5 mg/kg/injection, schedule: Q01DX Z (ip), vehicle: carboxymethylcellulose (CMC)); 95 % of control (dose: 6.8 mg/kg/injection, schedule: Q01DX Z (ip), vehicle: carboxymethylcellulose (CMC)); 124 % of control (dose: 10.2 mg/kg/injection, schedule: Q01DX Z (ip), vehicle: carboxymethylcellulose (CMC)); 101 % of control (dose: 16.4 mg/kg/injection, schedule: Q01DX Z (ip), vehicle: carboxymethylcellulose (CMC)); 155 % of control (dose: 37.0 mg/kg/injection, schedule: Q01DX Z (ip), vehicle: carboxymethylcellulose (CMC)); 151 % of control (dose: 40.0 mg/kg/injection, schedule: Q01DX Z (ip), vehicle: carboxymethylcellulose (CMC)). The T/C (dose: 50.0 mg/kg/injection, schedule: Q## X010 (oral), vehicle: saline) was 97 % of control; the T/C (dose: 55.5 mg/kg/injection, schedule: Q01DX Z (ip), vehicle: carboxymethylcellulose (CMC)) was 113 % of control and 87 % of control; the T/C (dose: 100.0 mg/kg/injection, schedule: Q## X010 (oral), vehicle: saline) is 103 % of control; the T/C (dose: 200.0 mg/kg/injection, schedule: Q## X010 (oral), vehicle: saline) is 96 % of control.
On to `CCCCCCCCCCCCCCCCCC[N+](C)(C)C` (tested in a mixture with another compound), for which the T/C (dose: 0.2 mg/kg/injection, schedule: Q01DX015 (ip), vehicle: saline) is 104 % of control; the T/C (dose: 0.5 mg/kg/injection, schedule: Q01DX015 (ip), vehicle: saline) was 98 % of control; the T/C (dose: 1.0 mg/kg/injection, schedule: Q01DX009 (ip), vehicle: saline) is 108 % of control; the T/C (dose: 1.0 mg/kg/injection, schedule: Q01DX015 (ip), vehicle: saline) is 104 % of control; the T/C (dose: 2.0 mg/kg/injection, schedule: Q01DX009 (ip), vehicle: saline) is 100 % of control; the T/C (dose: 2.0 mg/kg/injection, schedule: Q01DX015 (ip), vehicle: carboxymethylcellulose (CMC)) was 96 % of control. Also, the T/C (dose: 2.0 mg/kg/injection, schedule: Q01DX015 (ip), vehicle: saline) was 94 % of control and 103 % of control; the T/C (dose: 3.0 mg/kg/injection, schedule: Q04DX003 (ip), vehicle: saline sonified) is 93 % of control; the T/C (dose: 4.0 mg/kg/injection, schedule: Q01DX009 (ip), vehicle: saline) is 108 % of control; the T/C (dose: 4.0 mg/kg/injection, schedule: Q01DX015 (ip), vehicle: carboxymethylcellulose (CMC)) is 93 % of control; the T/C (dose: 4.0 mg/kg/injection, schedule: Q01DX015 (ip), vehicle: saline) was 96 % of control; the T/C (dose: 5.0 mg/kg/injection, schedule: Q01DX015 (ip), vehicle: saline) is 103 % of control. The T/C is, setting by setting: (dose: 6.0 mg/kg/injection, schedule: Q04DX003 (ip), vehicle: saline sonified) 103 % of control; (dose: 8.0 mg/kg/injection, schedule: Q01DX009 (ip), vehicle: saline) 97 % of control; (dose: 8.0 mg/kg/injection, schedule: Q01DX015 (ip), vehicle: saline) 94 % of control; (dose: 10.0 mg/kg/injection, schedule: Q01DX015 (ip), vehicle: saline) 91 % of control; (dose: 12.5 mg/kg/injection, schedule: Q01DX009 (ip), vehicle: saline) 101 % of control; (dose: 16.0 mg/kg/injection, schedule: Q04DX003 (ip), vehicle: saline) 105 % of control. In addition, the T/C was 117 % of control (dose: 25.0 mg/kg/injection, schedule: Q01DX001 (ip), vehicle: saline); 95 % of control (dose: 25.0 mg/kg/injection, schedule: Q01DX009 (ip), vehicle: saline); 96 % of control (dose: 25.0 mg/kg/injection, schedule: Q04DX003 (ip), vehicle: saline); 87 % of control (dose: 50.0 mg/kg/injection, schedule: Q04DX003 (ip), vehicle: saline).
`ClCC1(CCl)COC(c2ccccc2)OC1`: the T/C under setting [4] is 95 % of control, the T/C under setting [5] is 93 % of control and the T/C under setting [6] was 92 % of control.
`CCCC/C=C/Br`: the T/C was 100 % of control (dose: 100.0 mg/kg/injection, schedule: Q04DX003 (ip), vehicle: saline); 101 % of control (dose: 200.0 mg/kg/injection, schedule: Q01DX009 (ip), vehicle: acetone); 108 % of control (dose: 200.0 mg/kg/injection, schedule: Q04DX003 (ip), vehicle: saline); 105 % of control (dose: 400.0 mg/kg/injection, schedule: Q04DX003 (ip), vehicle: saline).
As for `Cc1cc(OC(=O)Nc2ccc(Cl)cc2Cl)c(C)cc1Cl`, the T/C is, setting by setting: (dose: 12.5 mg/kg/injection, schedule: Q01DX009 (ip), vehicle: saline with Tween-80) 95 % of control; (dose: 25.0 mg/kg/injection, schedule: Q01DX009 (ip), vehicle: saline with Tween-80) 91 % of control; under setting [1], 91 % of control; under setting [2], 98 % of control.
